Assay results taken from publication PMC5371824, “Phosphatidylinositol (4,5)-bisphosphate dynamically regulates the K2P background K^+ channel TASK-2” (Scientific Reports, 2017).
Substitutions are numbered along the chain they refer to.

How the values were obtained:
Format in all cases: biochemical
Design in all cases: key to MTSET effect: ✓ under “MTSET effect” indicates a significant increase in current after treatment with the methanesulfonate reagent; — in all cases stands for no significant effect
TASK-2-K254C = biological target: T1, TASK-2-K254C (Mus musculus, UniProt F6V9U5, K254C); assay: Excised inside-out patch recording, TASK-2-K254C mutant
T1 construct: expressed in transfected cells; host or cells: HEK-293
T1 sequence (F6V9U5 1-502 K254C): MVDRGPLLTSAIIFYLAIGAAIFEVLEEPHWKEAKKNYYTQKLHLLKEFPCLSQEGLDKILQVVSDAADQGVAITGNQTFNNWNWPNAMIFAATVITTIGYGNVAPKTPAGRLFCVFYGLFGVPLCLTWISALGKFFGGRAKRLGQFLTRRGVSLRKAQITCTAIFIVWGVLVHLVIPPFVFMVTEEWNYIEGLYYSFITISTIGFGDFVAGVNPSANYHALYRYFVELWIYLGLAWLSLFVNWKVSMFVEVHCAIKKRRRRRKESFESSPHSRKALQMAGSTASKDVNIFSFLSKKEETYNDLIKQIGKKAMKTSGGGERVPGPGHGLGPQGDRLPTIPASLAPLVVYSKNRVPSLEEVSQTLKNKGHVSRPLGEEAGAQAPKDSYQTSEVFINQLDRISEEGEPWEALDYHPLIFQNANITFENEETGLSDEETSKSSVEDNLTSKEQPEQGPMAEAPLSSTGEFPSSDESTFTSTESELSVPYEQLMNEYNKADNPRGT
Method: (§1) Figure 6 Scanning of potential sites of interaction of TASK-2 with PI(4,5)P2 by cysteine mutagenesis of intracellular basic residues. (A) Schematic representation of TASK-2 topology showing the sequences of segments of the protein predicted to be intracellular or intracellular-facing. Basic residues are highlighted in red. (B) Recording from an excised inside-out patch of membrane taken from a HEK-293 cell over-expressing TASK-2. The patch was held at −60 mV in the presence of 1 mM ATP. At the intervals indicated by the boxes the intracellular aspect of the membrane was exposed to 300 μM Neomycin and then to 100 μM TPeA. At the end of the TPeA period the patch was additionally exposed to 1 mM MTSET as shown by the black box. (C and D) experiments as in (B), but with inside-out membrane patches obtained from cells expressing the mutants TASK-2-H327C and TASK-2-K297C respectively. In D the reducing agent DTT was also added at 2 mM. (E) Summary of experiments comparing the current before and after treatment with MTSET. […]
(§2) Recordings in the inside-out isolated patch configuration were performed in the gap-free mode at −60 mV. […] Traces shown are prints from crude Clampfit screen shots and quantification was done using the average currents were calculated at intervals using Clampfit after baseline adjustment.

TASK-2-K297C = biological target: T2, TASK-2-K297C (Mus musculus, UniProt F6V9U5, K297C); assay: Excised inside-out patch recording, TASK-2-K297C mutant
T2 construct: expressed in transfected cells; host or cells: HEK-293
T2 sequence (F6V9U5 1-502 K297C): T1 sequence (F6V9U5 1-502 K254C) with C254K, K297C
Method: Figure 6 Scanning of potential sites of interaction of TASK-2 with PI(4,5)P2 by cysteine mutagenesis of intracellular basic residues. (A) Schematic representation of TASK-2 topology showing the sequences of segments of the protein predicted to be intracellular or intracellular-facing. Basic residues are highlighted in red. (B) Recording from an excised inside-out patch of membrane taken from a HEK-293 cell over-expressing TASK-2. The patch was held at −60 mV in the presence of 1 mM ATP. At the intervals indicated by the boxes the intracellular aspect of the membrane was exposed to 300 μM Neomycin and then to 100 μM TPeA. At the end of the TPeA period the patch was additionally exposed to 1 mM MTSET as shown by the black box. (C and D) experiments as in (B), but with inside-out membrane patches obtained from cells expressing the mutants TASK-2-H327C and TASK-2-K297C respectively. In D the reducing agent DTT was also added at 2 mM. (E) Summary of experiments comparing the current before and after treatment with MTSET.
Mus musculus TASK-2 (GenBank accession No. AF319542) plasmid was that obtained from mouse kidney. The cDNAs was subcloned into the pCR3.1 vector. Mutations were made by site-directed mutagenesis into the pCR3.1 vector as previously described[69] and confirmed by sequencing. HEK-293 cells were cultured in Dulbecco’s modified Eagle’s medium (DMEM) and F12 Ham’s medium at a 1:1 ratio and supplemented with 10% fetal calf serum at 37 °C in 5% CO2. For electrophysiological experiments, transient transfections were performed by electroporation, using CD8 cotransfection to identify effectively transfected cells. […] Experiments were performed 4–8 h after electroporation. […]
as §2

TASK-2-R4C = biological target: T3, TASK-2-R4C (Mus musculus, UniProt F6V9U5, R4C); assay: Excised inside-out patch recording, TASK-2-R4C mutant
T3 construct: expressed in transfected cells; host or cells: HEK-293
T3 sequence (F6V9U5 1-502 R4C): T1 sequence (F6V9U5 1-502 K254C) with R4C, C254K
Method: as §1, §2

[1] = 1 mM, in the presence of TPeA, inside-out patch

`C[N+](C)(C)CCSS(C)(=O)=O.[Cl-]` [MTSET, [2-(trimethylammonium)ethyl] methanethiosulfonate chloride] was tested, and the “Effect of MTSET on TASK-2-K254C activity” value (TASK-2-K254C; [1]) was “significantly activated”, the MTSET effect (TASK-2-K254C; mutation K254C) was “✓” and the “Effect of MTSET on TASK-2-K297C activity” value (TASK-2-K297C; [1]) was “markedly enhanced”. The MTSET effect (TASK-2-K297C; mutation K297C) was “✓”, the “Effect of MTSET on TASK-2-R4C activity” value (TASK-2-R4C; [1]) was “not affected” and the MTSET effect (TASK-2-R4C; mutation R4C) was “—”.
